Reference: PMC5017016, “Calcium/calmodulin alleviates substrate inhibition in a strawberry UDP-glucosyltransferase involved in fruit anthocyanin biosynthesis” (BMC Plant Biology, 2016)

Target: T1, FvUGT1 (Fragaria vesca, UniProt A0A1S5NSV4)
T1 construct: gene UGT1; full-length ORF in pET-32 (KpnI/BamHI), N- and C-terminal His-tags kept, fusion 72 kD, E. coli BL21(DE3) pLysS, Ni-NTA; oligomer state unknown
T1 sequence (A0A1S5NSV4 1-465): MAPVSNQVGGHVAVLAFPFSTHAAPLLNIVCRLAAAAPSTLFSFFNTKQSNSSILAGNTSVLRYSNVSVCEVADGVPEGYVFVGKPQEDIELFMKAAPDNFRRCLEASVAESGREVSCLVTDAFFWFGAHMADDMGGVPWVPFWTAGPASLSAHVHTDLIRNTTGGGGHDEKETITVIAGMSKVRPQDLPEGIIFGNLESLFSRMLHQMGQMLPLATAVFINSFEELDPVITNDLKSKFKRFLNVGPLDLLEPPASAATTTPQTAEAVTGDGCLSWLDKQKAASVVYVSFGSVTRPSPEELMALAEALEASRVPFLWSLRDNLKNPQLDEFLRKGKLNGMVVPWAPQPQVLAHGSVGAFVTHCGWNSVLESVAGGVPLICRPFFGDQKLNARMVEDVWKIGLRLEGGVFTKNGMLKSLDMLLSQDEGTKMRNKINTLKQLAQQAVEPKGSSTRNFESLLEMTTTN
Assay: phosphatase-coupled malachite green glycosyltransferase assay; partial uncompetitive substrate inhibition fit (modified Hill, x = […])
Format: biochemical
Details: second site, no calmodulin, 5 mM UDP-Glc, 0–1,400 μM pelargonidin chloride, 10 mM CaCl2, pH 7.5, 37 °C

Oc1ccc(-c2[o+]c3cc(O)cc(O)c3cc2O)cc1 [pelargonidin]
K i: 331.5 ± 13.3 µM
